Measured values reported in article PMC4363092 (Journal of medicinal chemistry, 2014).

What was measured:
[1] = target: T1, TNAP (Homo sapiens, UniProt P05186); test: TNAP stability assay: hydrolysis by TNAP; assay type: in vitro ADME; settings: 1 h, pH 9, 100 μM (data not shown)
T1 sequence (P05186 18-502 limits assumed): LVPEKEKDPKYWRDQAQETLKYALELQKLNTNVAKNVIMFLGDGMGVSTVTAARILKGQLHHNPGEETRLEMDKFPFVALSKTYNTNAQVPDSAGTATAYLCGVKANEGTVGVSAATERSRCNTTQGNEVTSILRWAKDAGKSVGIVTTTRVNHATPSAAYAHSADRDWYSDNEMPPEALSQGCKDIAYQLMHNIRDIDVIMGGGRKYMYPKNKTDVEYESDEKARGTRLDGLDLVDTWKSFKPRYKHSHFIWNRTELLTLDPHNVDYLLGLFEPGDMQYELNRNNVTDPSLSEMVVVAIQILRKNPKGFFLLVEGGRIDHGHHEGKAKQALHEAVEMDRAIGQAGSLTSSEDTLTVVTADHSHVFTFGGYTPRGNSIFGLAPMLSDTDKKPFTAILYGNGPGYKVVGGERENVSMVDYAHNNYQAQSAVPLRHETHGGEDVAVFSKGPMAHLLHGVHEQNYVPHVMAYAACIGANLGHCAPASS

[2] = target: P2Y1 receptor (Homo sapiens, UniProt P47900); test: [Ca2+]i elevation in 1321N1 astrocytoma cells expressing GFP-P2Y1 receptor; assay type: cell-based; settings: EC50 of the nucleotide in relation to the EC50 of ATP
P2Y1 receptor, sequence (P47900 whole entry): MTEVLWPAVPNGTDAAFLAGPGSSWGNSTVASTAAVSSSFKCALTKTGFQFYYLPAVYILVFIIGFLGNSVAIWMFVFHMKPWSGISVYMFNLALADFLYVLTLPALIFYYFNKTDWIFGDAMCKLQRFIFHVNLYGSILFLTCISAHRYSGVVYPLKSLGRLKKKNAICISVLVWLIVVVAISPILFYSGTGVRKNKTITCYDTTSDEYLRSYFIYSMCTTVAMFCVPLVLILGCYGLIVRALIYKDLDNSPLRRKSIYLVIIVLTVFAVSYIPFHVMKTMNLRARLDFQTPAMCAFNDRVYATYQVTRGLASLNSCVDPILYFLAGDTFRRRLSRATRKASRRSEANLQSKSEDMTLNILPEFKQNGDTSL

Nc1ncnc2c1ncn2[C@@H]1O[C@H](COP(=O)(O)OP(=O)(O)OP(=O)(O)O)[C@@H](O)[C@H]1O [ATP, reference compound]
hydrolysis by TNAP [1]: 100%
increase in efficacy vs ATP, P2Y1 [2]: 1
